The record followed here is US20090264415A2 (priority 2004, published 2009).

By IC50 is commonly meant the point on the concentration scale where inhibition reaches its midpoint.

The test relates to peripheral blood mononuclear cells (PBMC) stimulated with allogeneic PBMC or EBV-transformed human B cells (RPMI1788). The experiment in a line: Mixed lymphocyte reaction (MLR) assay. The class given is cell-based. As to conditions: Homo sapiens, RPMI-1788; MLR assay of example 319; read-out: MLR IC50. Here is the method: Pyrido[3,2-d]pyrimidine derivatives were first dissolved (10 mM) in dimethyl-sulfoxide (hereinafter referred as DMSO) and further diluted in culture medium before use for the following in vitro experiments. […] Some pyrido[3,2-d]pyrimidine derivatives described herein were tested in the following mixed lymphocyte reaction (MLR) assay.
Peripheral blood mononuclear cells (hereinafter referred as PBMC) were isolated from heparinized peripheral blood by density gradient centrifugation over Lymphoprep (Nycomed, Maorstua, Norway). Allogeneic PBMC or Eppstein-Barr Virus-transformed human B cells [commercially available under the trade name RPM11788 (ATCC name CCL156)] which strongly express B7-1 and B7-2 antigens were used as stimulator cells after irradiation with 30 Gy. MLR was performed in triplicate wells. After 5 days incubation at 37° C., 1 μCi [^3H]-thymidine was added to each cup. After a further 16 hours incubation, cells were harvested and counted in a β-counter. Inhibition of proliferation by a compound described in some of the present examples was counted while using the formula: [formula] wherein cpm is the thymidine count per minute. The MLR assay is regarded by those skilled in the art as an in vitro analogue of the transplant rejection since it is based on the recognition of allogeneic major histocompatibility antigens on the stimulator leukocytes, by responding lymphocytes.
Regarding `Nc1nc(N2CCN(C(=O)COc3ccc(Cl)cc3)CC2)c2nc(-c3c(F)cccc3F)ccc2n1` [Example 428, 2-amino-4-[4-(4-chlorophenoxyacetyl)piperazin-1-yl]-6-(2,6-difluorophenyl)pyrido-[3,2-d]pyrimidine], the concentration for half-maximal inhibition (IC50) came to 300 nM.

As for `Nc1nc(N2CCN(C(=O)COc3ccc(Cl)cc3)CC2)c2nc(-c3cc(Cl)ccc3Cl)ccc2n1` [Example 429, 2-amino-4-[4-(4-chlorophenoxyacetyl)piperazin-1-yl]-6-(2,5-dichlorophenyl)-pyrido-[3,2-d]pyrimidine], the IC50 came out at 500 nM.

`Nc1nc(N2CCN(C(=O)COc3ccc(Cl)cc3)CC2)c2nc(-c3ccccc3Cl)ccc2n1` [Example 430, 2-amino-4-[4-(4-chlorophenoxyacetyl)piperazin-1-yl]-6-(2-chlorophenyl)pyrido-[3,2-d]pyrimidine]: the concentration for half-maximal inhibition (IC50) stood at 40 nM.

Regarding `Nc1nc(N2CCN(C(=O)COc3ccc(Cl)cc3)CC2)c2nc(-c3cc(Cl)ccc3F)ccc2n1` [Example 431, 2-amino-4-[4-(4-chlorophenoxyacetyl)piperazin-1-yl]-6-(5-chloro-2-fluorophenyl)-pyrido-[3,2-d]pyrimidine], the IC50 was 330 nM.

Consider `Nc1nc(N2CCN(C(=O)COc3ccc(Cl)cc3)CC2)c2nc(-c3cc(F)c(F)c(F)c3)ccc2n1` [Example 432, 2-amino-4-[4-(4-chlorophenoxyacetyl)piperazin-1-yl]-6-(3,4,5-trifluorophenyl)-pyrido-[3,2-d]pyrimidine], for which the IC50 is 90 nM.

For `Cc1cccc(C)c1-c1ccc2nc(N)nc(N3CCN(C(=O)COc4ccc(Cl)cc4)CC3)c2n1` [Example 433, 2-amino-4-[4-(4-chlorophenoxyacetyl)piperazin-1-yl]-6-(2,6-dimethylphenyl)-pyrido-[3,2-d]pyrimidine], the IC50 turned out to be 3600 nM.

Take `CC(C)(C)OC(=O)NCC(=O)N1CCN(c2nc(N)nc3ccc(-c4ccc(F)cc4)nc23)CC1` [Example 434, 2-amino-4-{4-[N-(tert-butoxycarbonyl)-glycyl]-piperazin-1-yl}-6-(4-fluorophenyl)-pyrido[3,2-d]pyrimidine]: the IC50 was 93 nM.

Consider `CS(=O)(=O)Nc1cccc(-c2ccc3nc(N)nc(N4CCN(C(=O)COc5ccc(Cl)cc5)CC4)c3n2)c1` [Example 435, 2-amino-4-[4-(4-chlorophenoxyacetyl)piperazin-1-yl]-6-[N-3-(methanesulfonamidophenyl)]-pyrido-[3,2-d]pyrimidine], for which the IC50 worked out at 6 nM.

Consider `Nc1nc(N2CCN(C(=O)CO)CC2)c2nc(-c3ccc(F)cc3)ccc2n1` [Example 437, 2-amino-4-[4-(2-hydroxyacetyl)piperazin-1-yl]-6-(4-fluorophenyl)-pyrido[3,2-d]pyrimidine], for which the IC50 worked out at 1600 nM.

Turning to `Nc1nc(N2CCN(C(=O)COc3ccc(Cl)cc3)CC2)c2nc(-c3c(Cl)cccc3Cl)ccc2n1` [Example 438, 2-amino-4-[4-(4-chlorophenoxyacetyl)piperazin-1-yl]-6-(2,6-dichlorophenyl)-pyrido-[3,2-d]pyrimidine], the IC50 came out at 700 nM.

Turning to `Nc1nc(N2CCN(C(=O)COc3ccc(Cl)cc3)CC2)c2nc(-c3ccc(OC(F)(F)F)cc3)ccc2n1` [Example 439, 2-amino-4-[4-(4-chlorophenoxyacetyl)piperazin-1-yl]-6-(4-trifluoromethoxyphenyl)-pyrido-[3,2-d]pyrimidine], the half-inhibitory concentration (IC50) is 300 nM.

For the compound `Nc1nc(N2CCN(C(=O)COc3ccc(Cl)cc3)CC2)c2nc(-c3cc(F)ccc3F)ccc2n1` [Example 440, 2-amino-4-[4-(4-chlorophenoxyacetyl)piperazin-1-yl]-6-(2,5-difluorophenyl)pyrido-[3,2-d]pyrimidine], the IC50 is 70 nM.

`Nc1nc(N2CCN(C(=O)COc3ccc(Cl)cc3)CC2)c2nc(-c3ccc(CO)cc3)ccc2n1` [Example 441, 2-amino-4-[4-(4-chlorophenoxyacetyl)piperazin-1-yl]-6-[4-(hydroxymethyl)phenyl]pyrido-[3,2-d]pyrimidine]: the IC50 worked out at 8 nM.
